Measurements taken from patent publication US10669284B2, “Fused thiazolopyrimidine derivatives as MNKS inhibitors” (LIFEARC, priority 2015, dated 2020).

Columns and labels:
Full-length human MNK1 = target: T1, Full-length human MNK1 (Homo sapiens, UniProt Q9BUB5, T385D); test: MNK1 biochemical IC50 assay (Caliper Mobility Shift Assay); settings: read-out: P(IC50) MNK1 (converted)
T1 construct: GST (N); purchased Carna Biosciences 02-145; host or cells: baculovirus expression system

[1] = test system: phosphorylation of eIF4E at ser209 in MV4.11 cell line; test: MNK cellular activity phospho-eIF4E detection assay (Alphascreen Surefire); assay type: cell-based; settings: Homo sapiens; MV4.11 cell line, phospho-eIF4E (ser209) Alphascreen Surefire; read-out: P(IC50) elF4E (converted)
Outline: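 AlphaScreen SureFire sandwich-immunoassay readout of phospho-eIF4E Ser209 in lysed MV4.11 cells; acceptor then donor beads, each 1.5 hr at room temperature. Signal normalised to untreated DMSO-only controls; duplicate curves, values averaged over at least 2 independent experiments.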

Full-length human MNK2 = target: T2, Full-length human MNK2 (Homo sapiens, UniProt Q9HBH9, T379D); test: MNK2 biochemical IC50 assay (Caliper Mobility Shift Assay); settings: read-out: P(IC50) MNK2 (converted)
T2 construct: GST (N); purchased Carna Biosciences 02-146; host or cells: baculovirus expression system
T2 sequence (Q9HBH9 whole entry T379D): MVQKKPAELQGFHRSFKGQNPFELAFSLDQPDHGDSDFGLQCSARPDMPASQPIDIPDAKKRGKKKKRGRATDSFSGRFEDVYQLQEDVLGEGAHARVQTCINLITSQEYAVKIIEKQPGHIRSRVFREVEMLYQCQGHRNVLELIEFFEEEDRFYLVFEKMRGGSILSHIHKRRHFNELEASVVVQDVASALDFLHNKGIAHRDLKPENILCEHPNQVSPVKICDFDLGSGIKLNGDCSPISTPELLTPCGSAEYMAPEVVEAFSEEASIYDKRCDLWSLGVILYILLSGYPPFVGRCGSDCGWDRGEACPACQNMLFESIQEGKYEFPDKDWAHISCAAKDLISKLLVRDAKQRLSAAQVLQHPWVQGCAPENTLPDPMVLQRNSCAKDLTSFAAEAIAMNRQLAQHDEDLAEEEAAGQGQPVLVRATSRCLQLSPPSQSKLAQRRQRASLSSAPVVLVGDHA

T1 sequence (Q9BUB5 1-424 isoform Q9BUB5-2 T344D): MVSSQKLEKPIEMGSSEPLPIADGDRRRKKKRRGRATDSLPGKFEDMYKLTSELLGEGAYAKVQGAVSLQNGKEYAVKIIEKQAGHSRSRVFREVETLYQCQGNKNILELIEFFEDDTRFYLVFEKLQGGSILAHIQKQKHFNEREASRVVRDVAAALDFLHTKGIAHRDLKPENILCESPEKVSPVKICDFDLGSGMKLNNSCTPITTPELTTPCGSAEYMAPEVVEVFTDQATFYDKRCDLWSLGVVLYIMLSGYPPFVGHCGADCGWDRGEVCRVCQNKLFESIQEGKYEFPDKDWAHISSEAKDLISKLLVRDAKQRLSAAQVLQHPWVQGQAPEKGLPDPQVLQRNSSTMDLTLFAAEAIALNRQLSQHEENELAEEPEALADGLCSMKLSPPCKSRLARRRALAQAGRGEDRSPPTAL

Compound `O=C(NCC1CCNCC1)c1nc2c(Nc3ccc(F)cc3OC(CF)CF)ncnc2s1` [Example 52, 7-[4-fluoro-2-[2-fluoro-1-(fluoromethyl)ethoxy]anilino]-N-(4-piperidylmethyl)thiazolo[5,4-d]pyrimidine-2-carboxamide] has an IC50 (Full-length human MNK1) of 63.1 nM, an IC50 [1] of 100 nM and an IC50 (Full-length human MNK2) of 63.1 nM.

With `CN(C)CCCNC(=O)c1nc2c(Nc3ccc(F)cc3O[C@@H]3CCCC[C@H]3O)ncnc2s1` [Example 15, N-[3-(dimethylamino)propyl]-7-[4-fluoro-2-[(1R,2R)-2-hydroxycyclohexoxy]anilino]thiazolo[5,4-d]pyrimidine-2-carboxamide] the IC50 (Full-length human MNK1) was 794 nM, the IC50 [1] was 251 nM and the IC50 (Full-length human MNK2) was 631 nM.

In the case of `CC(C)Oc1cc(F)ccc1Nc1ncnc2sc(C(=O)NCCC(=O)O)nc12` [Example 14, 3-[[7-(4-fluoro-2-isopropoxy-anilino)thiazolo[5,4-d]pyrimidine-2-carbonyl]amino]propanoic acid], the IC50 (Full-length human MNK1) is reported as 158 nM, the IC50 [1] is reported as 398 nM and the IC50 (Full-length human MNK2) is reported as 79.4 nM.

`NCC1CN(c2ncnc3sc(C(=O)NC4CCOCC4)nc23)c2ccccc21` (stereo not drawn) [Example 119, 7-[3-(Aminomethyl)indolin-1-yl]-N-tetrahydropyran-4-yl-thiazolo[5,4-d]pyrimidine-2-carboxamide] gave an IC50 (Full-length human MNK1) of 12.6 nM, an IC50 [1] of 20 nM and an IC50 (Full-length human MNK2) of 15.8 nM.

In the case of `CC(C)Oc1cc(F)ccc1Nc1ncnc2sc(C(=O)NCC3CCOCC3)nc12` [Example 38, 7-{[4-fluoro-2-(propan-2-yloxy)phenyl]amino}-N-(tetrahydro-2H-pyran-4-ylmethyl)[1,3]thiazolo[5,4-d]pyrimidine-2-carboxamide], the IC50 (Full-length human MNK1) is reported as 100 nM, the IC50 [1] is reported as 79.4 nM and the IC50 (Full-length human MNK2) is reported as 63.1 nM.

`O=C(NC1CCOCC1)c1nc2c(N3CCc4ncccc43)ncnc2s1` [Example 44, 7-(2,3-Dihydro-1H-pyrrolo[3,2-b]pyridin-1-yl)-N-(tetrahydro-2H-pyran-4-yl)[1,3]thiazolo[5,4-d]pyrimidine-2-carboxamide] showed an IC50 (Full-length human MNK1) of 158 nM, an IC50 [1] of 100 nM and an IC50 (Full-length human MNK2) of 100 nM.

`CC(C)Oc1cc(F)ccc1Nc1ncnc2sc(C(=O)NCCCO)nc12` [Example 8, 7-(4-fluoro-2-isopropoxy-anilino)-N-(3-hydroxypropyl)thiazolo[5,4-d]pyrimidine-2-carboxamide] gave an IC50 (Full-length human MNK1) of 50.1 nM, an IC50 [1] of 63.1 nM and an IC50 (Full-length human MNK2) of 50.1 nM.

`CC1(CCO)CN(c2ncnc3sc(C(=O)NCC4CCNCC4)nc23)c2ccccc21` (stereo not drawn) [Example 144] was tested, and the IC50 (Full-length human MNK1) was 12.6 nM, the IC50 [1] was 20 nM and the IC50 (Full-length human MNK2) was 15.8 nM.

`CC(C)Oc1cc(F)ccc1Nc1ncnc2sc(C(=O)NC3CCNCC3)nc12` [Example 31, 7-{[4-Fluoro-2-(propan-2-yloxy)phenyl]amino}-N-(piperidin-4-yl)[1,3]thiazolo[5,4-d]pyrimidine-2-carboxamide] was tested, and the IC50 (Full-length human MNK1) was 63.1 nM, the IC50 [1] was 50.1 nM and the IC50 (Full-length human MNK2) was 50.1 nM.

`CC(C)Oc1cc(F)ccc1Nc1ncnc2sc(C(=O)NCC3CNCCO3)nc12` (stereo not drawn) [Example 4, 7-(4-fluoro-2-isopropoxy-anilino)-N-(morpholin-2-ylmethyl)thiazolo[5,4-d]pyrimidine-2-carboxamide] was tested, and the IC50 (Full-length human MNK1) was 50.1 nM, the IC50 [1] was 100 nM and the IC50 (Full-length human MNK2) was 39.8 nM.

With `CNCC1CN(c2ncnc3sc(C(=O)NC4CCOCC4)nc23)c2ccccc21` (stereo not drawn) [Example 120, 7-[3-(Methylaminomethyl)indolin-1-yl]-N-tetrahydropyran-4-yl-thiazolo[5,4-d]pyrimidine-2-carboxamide] the IC50 (Full-length human MNK1) was 50.1 nM, the IC50 [1] was 126 nM and the IC50 (Full-length human MNK2) was 31.6 nM.

In the case of `CN1CCC2(CC1)CN(c1ncnc3sc(C(=O)NC4CCOCC4)nc13)c1ccccc12` [Example 40, 7-(1′-Methylspiro[indole-3,4′-piperidin]-1(2H)-yl)-N-(tetrahydro-2H-pyran-4-yl)[1,3]thiazolo[5,4-d]pyrimidine-2-carboxamide], the IC50 (Full-length human MNK1) is reported as 12.6 nM, the IC50 [1] is reported as 50.1 nM and the IC50 (Full-length human MNK2) is reported as 20 nM.

`O=C(NC1CCNCC1)c1nc2c(N3CCc4cc(F)ccc43)ncnc2s1` [Example 78, 7-(5-fluoroindolin-1-yl)-N-(4-piperidyl)thiazolo[5,4-d]pyrimidine-2-carboxamide] was tested, and the IC50 (Full-length human MNK1) was 2 nM, the IC50 [1] was 3.16 nM and the IC50 (Full-length human MNK2) was 2 nM.

`O=C(NCC1CCNCC1)c1nc2c(Nc3ccccc3-c3ccco3)ncnc2s1` [Example 62, 7-[2-(2-furyl)anilino]-N-(4-piperidylmethyl)thiazolo[5,4-d]pyrimidine-2-carboxamide] was tested, and the IC50 (Full-length human MNK1) was 631 nM, the IC50 [1] was 316 nM and the IC50 (Full-length human MNK2) was 316 nM.

In the case of `NCCC1CN(c2ncnc3sc(C(=O)NC4CC4)nc23)c2ccccc21` (stereo not drawn) [Example 164, 7-(3-(2-Aminoethyl)indolin-1-yl)-N-cyclo-propylthiazolo[5,4-d]pyrimidine-2-carboxamide], the IC50 (Full-length human MNK1) is reported as 5.01 nM, the IC50 [1] is reported as 5.01 nM and the IC50 (Full-length human MNK2) is reported as 5.01 nM.

`Fc1ccc2c(c1)CCN2c1ncnc2scnc12` [Example 171, 7-(5-Fluoroindolin-1-yl)thiazolo[5,4-d]pyrimidine] showed an IC50 (Full-length human MNK1) of 79.4 nM, an IC50 [1] of 251 nM and an IC50 (Full-length human MNK2) of 63.1 nM.

`CC1(C)CN(c2ncnc3sc(C(=O)NCCCN4CCCC4)nc23)c2ccccc21` [Example 160] showed an IC50 (Full-length human MNK1) of 6.31 nM, an IC50 [1] of 7.94 nM and an IC50 (Full-length human MNK2) of 6.31 nM.

In the case of `CC1CN(c2ncnc3sc(C(=O)NCC4CCNCC4)nc23)c2ccccc21` (stereo not drawn) [Example 146], the IC50 (Full-length human MNK1) is reported as 6.31 nM, the IC50 [1] is reported as 5.01 nM and the IC50 (Full-length human MNK2) is reported as 7.94 nM.

Compound `CNC(=O)c1nc2c(N3CC(C)c4ccccc43)ncnc2s1` (stereo not drawn) [Example 156, N-methyl-7-(3-methylindolin-1-yl)thiazolo[5,4-d]pyrimidine-2-carboxamide] has an IC50 (Full-length human MNK1) of 10 nM, an IC50 [1] of 5.01 nM and an IC50 (Full-length human MNK2) of 7.94 nM.

Compound `CC(C)[C@@H](CO)NC(=O)c1nc2c(N3CCc4ccccc43)ncnc2s1` [Example 101, N-[(1S)-1-(hydroxymethyl)-2-methyl-propyl]-7-indolin-1-yl-thiazolo[5,4-d]pyrimidine-2-carboxamide] has an IC50 (Full-length human MNK1) of 10 nM, an IC50 [1] of 31.6 nM and an IC50 (Full-length human MNK2) of 12.6 nM.

In the case of `CN1CCC(NC(=O)c2nc3c(N4CCc5cc([N+](=O)[O-])ccc54)ncnc3s2)CC1` [Example 45, N-(1-methylpiperidin-4-yl)-7-(5-nitro-2,3-dihydro-1H-indol-1-yl)[1,3]thiazolo[5,4-d]pyrimidine-2-carboxamide], the IC50 (Full-length human MNK1) is reported as 15.8 nM, the IC50 [1] is reported as 31.6 nM and the IC50 (Full-length human MNK2) is reported as 20 nM.

Compound `CC(C)(O)CC1CN(c2ncnc3sc(C(=O)NCC4CCNCC4)nc23)c2ccc(F)cc21` (stereo not drawn) [Example 143] has an IC50 (Full-length human MNK1) of 7.94 nM, an IC50 [1] of 5.01 nM and an IC50 (Full-length human MNK2) of 6.31 nM.

`CN1CCC(CNC(=O)c2nc3c(N4CCc5cccc(F)c54)ncnc3s2)CC1` [Example 93, 7-(7-fluoroindolin-1-yl)-N-[(1-methyl-4-piperidyl)methyl]thiazolo [5,4-d]pyrimidine-2-carboxamide] gave an IC50 (Full-length human MNK1) of 200 nM, an IC50 [1] of 251 nM and an IC50 (Full-length human MNK2) of 158 nM.

Work on `C[C@@H]1Cc2ccccc2N1c1ncnc2sc(C(=O)NCC3CCNCC3)nc12` [Example 127, (R)-7-(2-Methylindolin-1-yl)-N-(piperidin-4-ylmethyl)thiazolo[5,4-d]pyrimidine-2-carboxamide] yielded an IC50 (Full-length human MNK1) of 12.6 nM, an IC50 [1] of 15.8 nM and an IC50 (Full-length human MNK2) of 15.8 nM.

`C[C@@H]1Cc2ccccc2N1c1ncnc2sc(C(=O)NC3CCNCC3)nc12` [Example 129, 7-[(2R)-2-methylindolin-1-yl]-N-(4-piperidyl) thiazolo[5,4-d]pyrimidine-2-carboxamide] showed an IC50 (Full-length human MNK1) of 15.8 nM, an IC50 [1] of 79.4 nM and an IC50 (Full-length human MNK2) of 15.8 nM.
